{"source": "patent US20070071725A1", "about": "“Nitric oxide synthase gene transfer” (priority 2002, published 2007)", "key": {"cGMP": {"test_system": "cGMP", "test": "cGMP efflux concentration in perfused right atrial preparation", "parameters": "species or system rat", "settings": "0.3 μmol/L, SHR vs WKY", "experimental": "Isolated, perfused, beating atria were prepared by previously described method33,34. In brief, the right rat atrium was dissected from the heart after the animal was killed. A cannula containing 2 small catheters sealed within it was inserted into the atrium and secured by ligatures. The outer tip of the atrial cannula was open to allow for outflow. The cannulated atrium was transferred to a preheated (36.5 […]), continuously oxygenated, waterjacketed organ chamber, immediately perfused with oxygenated Tyrode's solution by means of a peristaltic pump (0.5 ml/min).\nThe atria were perfused for 60 minutes to stabilize. […]\nThe radioactivity of [^3H]inulin in atrial perfusate was measured with a liquid scintillation counter, and the amount of ECF translocated through the atrial wall was caculated, the amount of ECF translocated through the atrial wall was calculated as: ECF translocated (μl/min/g atrial wet wt)=total radioactivity in the perfusate (cpm/min)×1000/radioactivity in the pericardial reservoir (cpm/μl)×atrial wet wt (mg).\nFor measurement of cGMP concentration in perfusate, 500 μl of the perfusate was treated with trichloroacetic acid to a final concentration of 6% for 15 minutes at room temperature and centrifuged at 4° C. […] The amount of cGMP efflux was expressed as pmol cGMP/min/g atrial tissue. […]"}, "[1]": {"test_system": "right double atrial preparations", "test": "Heart rate (chronotropic) response of atrial preparations to carbachol", "parameters": "species or system rat", "experimental": "Sutures (Ethicon, 5/0 mersilk) were placed at the lateral edges of both atria and the preparation was transferred to a pre-heated (37±0.1° C.) water-jacketed organ bath containing 100 ml of continuously oxygenated Tyrode's solution. The atria were vertically mounted with the suture in the left atrium connected to a stainless steel hook and the suture in the right atrium attached to an isometric force transducer (Harvard Apparatus, Model 60-2997, Mass. USA) connected to an amplifier. Heart rate was triggered from contraction and recorded in real time (Biopac MP100 with Acqknowledge software).\nPreparations were equilibrated in Tyrode's solution for 60-90 minutes at 37° C. until a stable baseline heart rate was achieved. The right vagus was placed through a pair of custom-built platinum ring electrodes and stimulated at 3, 5, 7 and 10 Hz (15 V, 1 ms pulse duration; order of stimulations randomised) for 25 seconds, with an interval of at least 1 minute between successive stimulations. In some experiments vagal stimulation was repeated after application of the NO donor sodium nitroprusside (SNP; 20 μmol/L, 10 minutes incubation; Sigma). In addition, muscarinic responsiveness of atrial preparations was assessed using cumulative concentration-response curves to carbachol (0.1-0.5 μmol/L; Sigma; 2 minutes incubation at each concentration)."}, "isolated right atrium": {"test_system": "isolated right atrium", "parameters": "species or system SD rat", "settings": "100 μM, Ad.PRS-nNOS treated atria, n=6"}, "isolated right atria": {"test_system": "isolated right atria", "test": "Evoked [3H]NE release from isolated right atria of SHR and WKY five days after percutaneous gene transfer", "parameters": "species or system rat", "settings": "10 μmol/L"}, "isolated atria": {"test_system": "isolated atria", "test": "[3H]ACh release from isolated atria on field stimulation", "parameters": "species or system rat", "settings": "10 μmol/L, 5 Hz field stimulation, WKY", "procedure": "Animals were killed and the right atria removed as described above. The preparation was then transferred to a preheated (37 ??0.2 ?C), continuously oxygenated, water-jacketed organ bath containing 4 ml of Tyrode's solution where the atrium was pinned flat between two parallel silver stimulating electrodes 10 mm apart. […] After a 45 minutes equilibration period (where the Tyrode's solution was replaced every 15 minutes), the atrium was stimulated at 5 Hz (15V, 1 ms pulse duration) for one minute and then again after another minute to stimulate acetylcholine turnover. […]\nFollowing the wash period superfusion was stopped and the bath solution replaced every 3 minutes with a 0.5 ml sample being taken on every change of solution. This sample was added to 4.5 ml of scintillation fluid (Ecoscint A, National Diagnostics) and the amount of radioactivity in each sample (disintegrations per minute) measured using a liquid scintillation counter (Tri-carb 2800TR, Packard). […] At the end of the experiment, the atrium was immersed overnight in Tyrode's solution containing 4 U/ml papain (Sigma) and the radioactivity contained in the extract determined. [3H] outflow was expressed as a percentage of the total radioactivity in the atrium at the end of the experiment and that released after superfusion."}}, "note": "“Also recorded” adds a separate entry of the source."}
{"compound": "C[N+](C)(C)CCOC(N)=O", "note": "[CCh, carbachol]", "values": [{"measurement": "cGMP efflux concentration", "setting": "cGMP", "value": "significantly increased cGMP efflux concentration in the SHR"}, {"measurement": "heart rate response, SHR compared to WKY", "setting": "[1]; 0.1 μmol/L", "value": "significantly increased heart rate response in SHR compared to WKY"}, {"measurement": "heart rate response, SHR compared to WKY", "setting": "[1]; 0.2 μmol/L", "value": "No significantly changed"}, {"measurement": "heart rate response, SHR compared to WKY", "setting": "[1]; 0.5 μmol/L", "value": "significantly increased heart rate response in SHR compared to WKY"}]}
{"compound": "NC(=NCCC[C@H](N)C(=O)O)N[N+](=O)[O-]", "note": "[L-NNA, Nω-Nitro-Larginine]", "values": [{"measurement": "effect on Ad.PRS-nNOS-induced attenuation of NE release", "setting": "isolated right atrium", "value": "prevented the Ad.PRS-nNOS-induced attenuation of NE release; also recorded: reverse this response"}]}
{"compound": "O=c1onc2cnc3ccccc3n12", "note": "[ODQ, 1H-(1,2,4)oxadiazolo(4,3-a)quinoxaline-1-one]", "values": [{"measurement": "effect on NE release", "setting": "isolated right atria; Ad.PRS-eGFP treated SHR", "value": "did not effect"}, {"measurement": "effect on NE release", "setting": "isolated right atria; Ad.PRS-nNOS or Ad.PRS-eGFP treated WKY atria", "value": "significantly enhanced"}, {"measurement": "effect on Ad.PRS-nNOS attenuation of NE release", "setting": "isolated right atria; Ad.PRS-nNOS treated SHR", "value": "reversed"}, {"measurement": "effect on [3H]ACh release", "setting": "isolated atria", "value": "significantly enhanced"}]}
